Laboratory results as given in paper PMC11873611 (Acta Pharmaceutica Sinica. B, 2024).
Numbering of substitutions follows the chain as printed.

Key:
PGAM5 [1] = molecular target: T1, PGAM5 (Homo sapiens, UniProt Q96HS1, C229A); assay: in vitro PGAM5 phosphatase assay; assay type: biochemical
T1 sequence (Q96HS1 22-289 C229A): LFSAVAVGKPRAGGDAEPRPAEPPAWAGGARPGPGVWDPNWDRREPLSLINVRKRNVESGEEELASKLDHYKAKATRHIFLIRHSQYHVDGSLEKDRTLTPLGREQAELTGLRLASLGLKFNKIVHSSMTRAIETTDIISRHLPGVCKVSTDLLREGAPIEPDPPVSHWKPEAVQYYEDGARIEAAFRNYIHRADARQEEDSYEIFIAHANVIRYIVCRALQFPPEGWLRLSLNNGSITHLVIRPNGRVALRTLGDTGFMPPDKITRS

PGAM5 [2] = molecular target: T2, PGAM5 (Mus musculus, UniProt Q8BX10); assay: DARTS, CETSA and SIP target engagement in BMDMs; assay type: cell-based
T2 sequence (Q8BX10 1-288): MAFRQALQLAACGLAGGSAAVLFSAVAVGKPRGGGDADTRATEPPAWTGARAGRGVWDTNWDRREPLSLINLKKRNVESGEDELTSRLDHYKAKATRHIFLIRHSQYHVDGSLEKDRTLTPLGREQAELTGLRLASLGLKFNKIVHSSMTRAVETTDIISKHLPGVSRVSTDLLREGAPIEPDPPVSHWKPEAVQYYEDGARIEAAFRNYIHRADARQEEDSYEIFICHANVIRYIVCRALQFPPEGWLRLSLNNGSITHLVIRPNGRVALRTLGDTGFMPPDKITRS

PGAM5 [3] = molecular target: T3, PGAM5 (Homo sapiens, UniProt Q96HS1, C168A); assay: in vitro PGAM5 phosphatase assay; assay type: biochemical
T3 sequence (Q96HS1 22-289 C168A): T1 sequence (Q96HS1 22-289 C229A) with C147A, A208C

PGAM5 [4] = molecular target: T4, PGAM5 (Homo sapiens, UniProt Q96HS1); assay: SPR; assay type: binding
T4 sequence (Q96HS1 22-289): T1 sequence (Q96HS1 22-289 C229A) with A208C

PGAM5 [5] = molecular target: T4, PGAM5; assay: SPR; assay type: binding; remark: listed apart in the source

SMILES | in vitro PGAM5 phosphatase assay (phosphopeptide, BIOMOL Green) (PGAM5 [1]) | DARTS, CETSA and SIP target engagement in BMDMs (PGAM5 [2]) | in vitro PGAM5 phosphatase assay (phosphopeptide, BIOMOL Green) (PGAM5 [3]) | Kd (PGAM5 [4]) [nM] | SPR (Fig. S9L and S9M) (PGAM5 [5])
O=C1O[C@H]2[C@@H]3OC(=O)c4cc(O)c(O)c(O)c4-c4c(O)c(O)c5oc(=O)c6c(c(O)c(O)c7oc(=O)c4c5c76)-c4c(cc(O)c(O)c4O)C(=O)OC[C@H]3OC(O)[C@@H]2OC(=O)c2cc(O)c(O)c(O)c2-c2c1cc(O)c(O)c2O (mixture of isomers) [punicalagin] | punicalagin still inhibited the phosphatase activity of PGAM5 C168A or C229A protein mutant | punicalagin significantly restrained the proteolysis of PGAM5 by pronase, further supporting that punicalagin could bind to PGAM5 in BMDMs | punicalagin still inhibited the phosphatase activity of PGAM5 C168A or C229A protein mutant | ~0.3 | 
O=C1OC[C@H]2OC(O)[C@H](O)[C@@H](O)[C@@H]2OC(=O)c2cc(O)c(O)c(O)c2-c2c(O)c(O)c3oc(=O)c4c(c(O)c(O)c5oc(=O)c2c3c54)-c2c1cc(O)c(O)c2O (mixture of isomers) [punicalin] |  |  |  |  | there was a similar direct interaction between punicalin and ΔN21 PGAM5 or ΔN90 PGAM5 compared with punicalagin
